These results are taken from paper PMC5461114, “A bioactive peptide amidating enzyme is required for ciliogenesis” (eLife, 2017).

For one assay, the target named is T1, CrPAM (PHM activity) (Chlamydomonas reinhardtii, UniProt A0A0S2C767).
T1 construct: gene PAM; native full-length bifunctional membrane PAM (110 kDa) in detergent cell lysate; PHM domain activity measured
T1 sequence (A0A0S2C767 22-926): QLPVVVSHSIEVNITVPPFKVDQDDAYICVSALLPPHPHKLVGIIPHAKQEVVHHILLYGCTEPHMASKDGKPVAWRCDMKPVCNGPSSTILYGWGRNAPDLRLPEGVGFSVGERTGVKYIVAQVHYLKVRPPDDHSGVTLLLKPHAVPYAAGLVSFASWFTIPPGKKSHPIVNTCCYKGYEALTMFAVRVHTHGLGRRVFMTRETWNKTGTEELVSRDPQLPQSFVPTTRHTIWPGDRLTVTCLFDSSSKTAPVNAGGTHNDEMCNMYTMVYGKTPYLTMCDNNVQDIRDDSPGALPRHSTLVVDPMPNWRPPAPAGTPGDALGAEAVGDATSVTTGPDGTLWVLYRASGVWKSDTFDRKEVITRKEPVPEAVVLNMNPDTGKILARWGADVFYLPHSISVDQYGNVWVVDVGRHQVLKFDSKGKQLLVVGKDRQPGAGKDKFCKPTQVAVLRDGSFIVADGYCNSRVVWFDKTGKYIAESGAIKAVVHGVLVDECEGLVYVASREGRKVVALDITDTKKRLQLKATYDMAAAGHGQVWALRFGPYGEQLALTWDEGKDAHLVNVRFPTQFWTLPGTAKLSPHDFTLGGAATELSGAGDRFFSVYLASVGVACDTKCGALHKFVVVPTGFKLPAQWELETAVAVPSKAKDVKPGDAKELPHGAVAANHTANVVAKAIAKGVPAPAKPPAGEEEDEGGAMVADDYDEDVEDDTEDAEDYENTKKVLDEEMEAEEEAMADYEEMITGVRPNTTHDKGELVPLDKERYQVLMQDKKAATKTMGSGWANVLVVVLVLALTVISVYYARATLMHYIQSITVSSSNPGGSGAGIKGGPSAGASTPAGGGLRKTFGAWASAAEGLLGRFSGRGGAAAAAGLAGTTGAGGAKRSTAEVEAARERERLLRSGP
In words: PHM activity assay in cell lysate. The format is biochemical. The following applies: mechanism-based PHM inhibitor; PBA added to lysate; vehicle ethanol.

For the next assay, the target named is T2, rat PAM (PHM activity) (Rattus norvegicus, UniProt P14925).
T2 construct: rat PAM expressed in mouse corticotropes, cell lysate; PHM domain activity measured
T2 sequence (P14925 36-976): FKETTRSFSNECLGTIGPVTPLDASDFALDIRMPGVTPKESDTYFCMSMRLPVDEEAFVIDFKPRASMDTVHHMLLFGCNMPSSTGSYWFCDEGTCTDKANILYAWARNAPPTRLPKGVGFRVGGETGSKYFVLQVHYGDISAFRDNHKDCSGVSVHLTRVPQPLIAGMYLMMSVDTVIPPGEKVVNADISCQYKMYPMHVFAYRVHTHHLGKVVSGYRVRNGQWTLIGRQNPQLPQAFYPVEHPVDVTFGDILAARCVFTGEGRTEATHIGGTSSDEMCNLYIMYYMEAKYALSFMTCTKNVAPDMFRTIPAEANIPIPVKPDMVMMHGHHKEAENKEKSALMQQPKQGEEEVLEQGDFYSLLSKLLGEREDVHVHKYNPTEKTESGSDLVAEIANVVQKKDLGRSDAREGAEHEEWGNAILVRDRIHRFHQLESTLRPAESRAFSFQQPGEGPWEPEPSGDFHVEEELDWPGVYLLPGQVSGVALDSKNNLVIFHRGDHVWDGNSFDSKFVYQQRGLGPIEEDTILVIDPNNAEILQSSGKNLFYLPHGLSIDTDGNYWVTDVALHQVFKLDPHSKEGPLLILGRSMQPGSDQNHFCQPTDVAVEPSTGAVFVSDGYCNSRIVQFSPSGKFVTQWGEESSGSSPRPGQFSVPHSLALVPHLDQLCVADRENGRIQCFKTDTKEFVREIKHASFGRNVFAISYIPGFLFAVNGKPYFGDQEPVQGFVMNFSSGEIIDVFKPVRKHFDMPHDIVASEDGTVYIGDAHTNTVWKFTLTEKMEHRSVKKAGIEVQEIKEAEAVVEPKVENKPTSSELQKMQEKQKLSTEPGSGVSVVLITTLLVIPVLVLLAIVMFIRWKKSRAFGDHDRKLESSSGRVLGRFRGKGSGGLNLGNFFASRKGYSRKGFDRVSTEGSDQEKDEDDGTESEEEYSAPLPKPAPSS
In words: PHM activity assay in cell lysate. The format is biochemical. The following applies: mechanism-based PHM inhibitor; PBA added to lysate; vehicle ethanol.

Take `O=C(O)CC=Cc1ccccc1` [4-phenyl-3-butenoic acid]: the PHM specific activity result is “did inhibit both mammalian and C. reinhardtii PHM activities” at CrPAM (PHM activity); “PHM specific activity was greatly reduced in both lysates in the presence of PBA” on rat PAM (PHM activity).
